Columns and labels:
S. aureus ATCC 29213 = test: Minimum Inhibitory Concentration (MIC) assay, S. aureus; format: cell-based; conditions: Staphylococcus aureus, ATCC29213; broth microdilution; read-out: MIC against S. Aureus
Method: (§1) The antimicrobial activity of the compounds of the invention may be evaluated by a number of methods, including the following visual minimum inhibitory concentration (MIC) assay. This assay determines the minimum concentration of compound required to inhibit growth of a bacterial strain.
(§2) Minimum Inhibitory Concentration (MIC) Assay
(§3) Whole-cell antibacterial activity is determined by broth microdilution using conditions recommended by the NCCLS (see National Committee for Clinical Laboratory Standards. 2001. Performance standards for antimicrobial susceptibility testing: 11th informational supplement. Vol. 21, no. 1, M100-S11. National Committee for Clinical Laboratory Standards, Wayne, Pa.). Test compounds are dissolved in DMSO and diluted 1:50 in Mueller-Hinton II broth (Becton-Dickinson) to produce a 256 μg/ml stock solution. In a 96-well microtiter plate, the compound solution is serially two-fold diluted in Mueller-Hinton II broth. After the compounds are diluted, a 50 μl aliquot of the test organism (˜1×10^6 cfu/mL) is added to each well of the microtiter plate. The final test concentrations ranges from 0.125-128 μg/mL. Inoculated plates are incubated in ambient air at 37° C. for 18 to 24 hours. The organisms selected for testing included laboratory strains S. aureus ATCC 29213 and E. coli ATCC 25922 (strains purchased from American Type Culture Collection, Manassas, Va.), S. aureus FQR700699, and Paeruginosa 27853. The minimum inhibitory concentration (MIC) is determined as the lowest concentration of compound that inhibited visible growth of the test organism.

E. coli ATCC 25922 = test: Minimum Inhibitory Concentration (MIC) assay, E. coli; format: cell-based; conditions: Escherichia coli, ATCC25922; broth microdilution; read-out: MIC against E. coli
Method: as §1, §2, §3

## CC1CN(c2cc3c(cc2F)c(=O)c2c(=O)[nH]sc2n3C2CC2)CCN1 (centres unmarked) [Compound 17, 9-cyclopropyl-6-fluoro-7-(3-methyl-piperazin-1-yl)isothia-zolo[5,4-b]quinoline-3,4(2H,9H)-dione]
S. aureus ATCC 29213
  MIC: ≤ 1 µg/mL
E. coli ATCC 25922
  MIC: ≤ 1 µg/mL

## O=c1[nH]sc2c1c(=O)c1cc(F)c(N3CCC(O)C3)cc1n2C1CC1 (centres unmarked) [Compound 18, 9-cyclopropyl-6-fluoro-7-(3-hydroxy-pyrrolidin-1-yl)isothia-zolo[5,4-b]quinoline-3,4(2H,9H)-dione]
S. aureus ATCC 29213
  MIC: ≤ 1 µg/mL
E. coli ATCC 25922
  MIC: ≤ 1 µg/mL

## O=c1[nH]sc2c1c(=O)c1cc(F)c(N3CCOCC3)cc1n2C1CC1 [Compound 19, 9-cyclopropyl-6-fluoro-7-morpholino-isothiazolo[5,4-b]quinoline-3,4(2H,9H)-dione]
S. aureus ATCC 29213
  MIC: ≤ 1 µg/mL
E. coli ATCC 25922
  MIC: ≤ 1 µg/mL

## O=c1[nH]sc2c1c(=O)c1cc(F)c(N3CCNCC3)cc1n2C1CC1 [Compound 20, 9-cyclopropyl-6-fluoro-7-(piperazin-1-yl)isothia-zolo[5,4-b]quinoline-3,4(2H,9H)-dione]
S. aureus ATCC 29213
  MIC: ≤ 1 µg/mL
E. coli ATCC 25922
  MIC: ≤ 1 µg/mL

## CN1CCN(c2cc3c(cc2F)c(=O)c2c(=O)[nH]sc2n3C2CC2)CC1 [Compound 21, 9-cyclopropyl-6-fluoro-7-(4-methyl-piperazin-1-yl)isothia-zolo[5,4-b]quinoline-3,4(2H,9H)-dione]
S. aureus ATCC 29213
  MIC: ≤ 1 µg/mL
E. coli ATCC 25922
  MIC: ≤ 1 µg/mL

## CN(C)C1CCN(c2cc3c(cc2F)c(=O)c2c(=O)[nH]sc2n3C2CC2)C1 (centres unmarked) [Compound 22, 9-cyclopropyl-7-(3-(dimethyl-amino)pyrrolidin-1-yl)-6-fluoroiso-thiazolo[5,4-b]quinoline-3,4(2H,9H)-dione]
S. aureus ATCC 29213
  MIC: ≤ 1 µg/mL
E. coli ATCC 25922
  MIC: ≤ 1 µg/mL

## O=c1[nH]sc2c1c(=O)c1cc(F)c(N3CCCCC3)cc1n2C1CC1 [Compound 23, 9-cyclopropyl-6-fluoro-7-(piperidin-1-yl)isothia-zolo[5,4-b]quinoline-3,4(2H,9H)-dione]
S. aureus ATCC 29213
  MIC: ≤ 1 µg/mL

## O=c1[nH]sc2c1c(=O)c1cc(F)c(N3CCCC3)cc1n2C1CC1 [Compound 24, 9-cyclopropyl-6-fluoro-7-(pyrrolidin-1-yl)isothia-zolo[5,4-b]quinoline-3,4(2H,9H)-dione]
S. aureus ATCC 29213
  MIC: ≤ 1 µg/mL

## CN(C(=O)OC(C)(C)C)C1CCN(c2cc3c(cc2F)c(=O)c2c(=O)[nH]sc2n3C2CC2)C1 (centres unmarked) [Compound 25, tert-butyl 1-(9-cyclopropyl-6-fluoro-3,4-dioxo-2,3,4,9-tetrahydroiso-thiazolo[5,4-b]quinolin-7-yl)pyrrolidin-3-yl(methyl) carbamate]
S. aureus ATCC 29213
  MIC: ≤ 1 µg/mL

## CC(C)(C)OC(=O)N1CCN(c2cc3c(cc2F)c(=O)c2c(=O)[nH]sc2n3C2CC2)CC1 [Compound 26, tert-butyl 4-(9-cyclopropyl-6-fluoro-3,4-dioxo-2,3,4,9-tetrahydroiso-thiazolo[5,4-b]quinolin-7-yl)piperazine-1-carboxylate]
S. aureus ATCC 29213
  MIC: ≤ 1 µg/mL
E. coli ATCC 25922
  MIC: ≤ 1 µg/mL

## CC(C)(C)OC(=O)NC1CCN(c2cc3c(cc2F)c(=O)c2c(=O)[nH]sc2n3C2CC2)C1 (centres unmarked) [Compound 27, tert-butyl 1-(9-cyclopropyl-6-fluoro-3,4-dioxo-2,3,4,9-tetrahydroiso-thiazolo[5,4-b]quinolin-7-yl)pyrrolidin-3-ylcarbamate]
S. aureus ATCC 29213
  MIC: ≤ 1 µg/mL
E. coli ATCC 25922
  MIC: ≤ 1 µg/mL

## O=c1[nH]sc2c1c(=O)c1cc(F)c(N3CCSCC3)cc1n2C1CC1 [Compound 28, 9-cyclopropyl-6-fluoro-7-thiomorpho-linoiso-thiazolo[5,4-b]quinoline-3,4(2H,9H)-dione]
S. aureus ATCC 29213
  MIC: ≤ 1 µg/mL
E. coli ATCC 25922
  MIC: ≤ 1 µg/mL

## O=c1[nH]sc2c1c(=O)c1cc(F)c(NCCN3CCOCC3)cc1n2C1CC1 [Compound 29, 9-cyclopropyl-6-fluoro-7-(2-morpholino-ethyl-amino)iso-thiazolo[5,4-b]quinoline-3,4(2H,9H)-dione]
S. aureus ATCC 29213
  MIC: ≤ 1 µg/mL
E. coli ATCC 25922
  MIC: ≤ 1 µg/mL

## O=c1[nH]sc2c1c(=O)c1cc(F)c(N3CCN(CCN4CCCC4)CC3)cc1n2C1CC1 [Compound 30]
S. aureus ATCC 29213
  MIC: ≤ 1 µg/mL
E. coli ATCC 25922
  MIC: ≤ 1 µg/mL

## CCn1c2cc(N3CCNCC3)c(F)cc2c(=O)c2c(=O)[nH]sc21 [Compound 31, 9-ethyl-6-fluoro-7-(piperazin-1-yl)isothia-zolo[5,4-b]quinoline-3,4(2H,9H)-dione]
S. aureus ATCC 29213
  MIC: ≤ 1 µg/mL
E. coli ATCC 25922
  MIC: ≤ 1 µg/mL

## CN(C)CCN1CCN(c2cc3c(cc2F)c(=O)c2c(=O)[nH]sc2n3C2CC2)CC1 [Compound 32, 9-cyclopropyl-7-(4-(2-(dimethyl-amino)ethyl)piperazin-1-yl)-6-fluoroiso-thiazolo[5,4-b]quinoline-3,4(2H,9H)-dione]
S. aureus ATCC 29213
  MIC: ≤ 1 µg/mL
E. coli ATCC 25922
  MIC: ≤ 1 µg/mL

## O=c1[nH]sc2c1c(=O)c1cc(F)c(N3CCN(CCN4CCOCC4)CC3)cc1n2C1CC1 [Compound 33, 9-cyclopropyl-6-fluoro-7-(4-(2-morpho-linoethyl)piperazin-1-yl)isothia-zolo[5,4-b]quinoline-3,4(2H,9H)-dione]
S. aureus ATCC 29213
  MIC: ≤ 1 µg/mL
E. coli ATCC 25922
  MIC: ≤ 1 µg/mL

## COc1c(N2CC[C@H](C(C)(C)N)C2)ccc2c(=O)c3c(=O)[nH]sc3n(C3CC3)c12 [Compound 60, (S)-7-(3-(2-aminopropan-2-yl)pyrrolidin-1-yl)-9-cyclopropyl-8-methoxyiso-thiazolo[5,4-b]quinoline-3,4(2H,9H)-dione]
S. aureus ATCC 29213
  MIC: ≤ 1 µg/mL

## CCn1c2s[nH]c(=O)c2c(=O)c2cc(F)c(N3CCNCC3)c(OC)c21 [Compound 62, 9-ethyl-6-fluoro-8-methoxy-7-(piperazin-1-yl)isothia-zolo[5,4-b]quinoline-3,4(2H,9H)-dione]
S. aureus ATCC 29213
  MIC: ≤ 1 µg/mL

## COc1c(N2CC[C@@H](CN)C2)ccc2c(=O)c3c(=O)[nH]sc3n(C3CC3)c12 [Compound 65, (S)-7-(3-(aminomethyl)-pyrrolidin-1-yl)-9-cyclopropyl-8-methoxyiso-thiazolo[5,4-b]quinoline-3,4(2H,9H)-dione]
S. aureus ATCC 29213
  MIC: ≤ 1 µg/mL

## COc1c(N2C[C@@H]3CCCN[C@@H]3C2)c(F)cc2c(=O)c3c(=O)[nH]sc3n(C3CC3)c12 [Compound 69, 9-cyclopropyl-6-fluoro-8-methoxy-7-((4aS,7aS)-octahydro-pyrrolo[3,4-b]pyridin-6-yl)isothia-zolo[5,4-b]quinoline-3,4(2H,9H)-dione]
S. aureus ATCC 29213
  MIC: ≤ 1 µg/mL

## COc1cc2c(=O)c3c(=O)[nH]sc3n(C3CC3)c2c(F)c1N1CCNCC1 [Compound 84, 9-cyclopropyl-8-fluoro-6-methoxy-7-(piperazin-1-yl)isothia-zolo[5,4-b]quinoline-3,4(2H,9H)-dione]
E. coli ATCC 25922
  MIC: ≤ 1 µg/mL

## CC[C@H](NC)[C@@H]1CCN(c2c(F)cc3c(=O)c4c(=O)[nH]sc4n(C4CC4)c3c2OC)C1 [Compound 91, 9-cyclopropyl-6-fluoro-8-methoxy-7-((R)-3-((S)-1-(methylamino)-propyl)pyrrolidin-1-yl)isothia-zolo[5,4-b]quinoline-3,4(2H,9H)-dione]
S. aureus ATCC 29213
  MIC: ≤ 1 µg/mL

## COc1c(N2CC[C@@H](N)C2)c(F)cc2c(=O)c3c(=O)[nH]sc3n(C3CC3)c12 [Compound 96, (R)-7-(3-amino-pyrrolidin-1-yl)-9-cyclopropyl-6-fluoro-8-methoxyiso-thiazolo[5,4-b]quinoline-3,4(2H,9H)-dione]
S. aureus ATCC 29213
  MIC: ≤ 1 µg/mL

## COc1c(N2CC[C@@H](N)C2)ccc2c(=O)c3c(=O)[nH]sc3n(C3CC3)c12 [Compound 97, (R)-7-(3-amino-pyrrolidin-1-yl)-9-cyclopropyl-8-methoxyiso-thiazolo[5,4-b]quinoline-3,4(2H,9H)-dione]
S. aureus ATCC 29213
  MIC: ≤ 1 µg/mL

## CN[C@@H]1CCN(c2c(F)cc3c(=O)c4c(=O)[nH]sc4n(C4CC4)c3c2OC)C1 [Compound 98, (R)-9-cyclo-propyl-6-fluoro-8-methoxy-7-(3-(methylamino)-pyrrolidin-1-yl)isothia-zolo[5,4-b]quinoline-3,4(2H,9H)-dione]
S. aureus ATCC 29213
  MIC: ≤ 1 µg/mL

## CN[C@@H]1CCN(c2ccc3c(=O)c4c(=O)[nH]sc4n(C4CC4)c3c2OC)C1 [Compound 99, (R)-9-cyclo-propyl-8-methoxy-7-(3-(methyl-amino)-pyrrolidin-1-yl)iso-thiazolo[5,4-b]quinoline-3,4(2H,9H)-dione]
S. aureus ATCC 29213
  MIC: ≤ 1 µg/mL

## COc1c(N2CCC(N)(CO)C2)c(F)cc2c(=O)c3c(=O)[nH]sc3n(C3CC3)c12 (centres unmarked) [Compound 109, 7-(3-amino-3-(hydroxy-methyl)-pyrrolidin-1-yl)-9-cyclo-propyl-6-fluoro-8-methoxyiso-thiazolo[5,4-b]quinoline-3,4(2H,9H)-dione]
S. aureus ATCC 29213
  MIC: ≤ 1 µg/mL

## COc1c(N2CC[C@@H]([C@@H](C)N)C2)ccc2c(=O)c3c(=O)[nH]sc3n(C3CC3)c12 [Compound 110, 7-((R)-3-((R)-1-aminoethyl)-pyrrolidin-1-yl)-9-cyclo-propyl-8-methoxyiso-thiazolo[5,4-b]quinoline-3,4(2H,9H)-dione]
S. aureus ATCC 29213
  MIC: ≤ 1 µg/mL

## COc1c(N2CC[C@@H](C(C)NC3CCCC3)C2)c(F)cc2c(=O)c3c(=O)[nH]sc3n(C3CC3)c12 (stereo partly drawn) [Compound 113, (R)-7-(3-(1-(cyclopentyl-amino)ethyl)pyrrolidin-1-yl)-9-cyclopropyl-6-fluoro-8-methoxyiso-thiazolo[5,4-b]quinoline-3,4(2H,9H)-dione]
S. aureus ATCC 29213
  MIC: ≤ 1 µg/mL
